The values that follow come from patent US6613770B1, “Quinoline derivatives as NK-2 and NK-3 receptor ligands” (SmithKline Beecham S.p.A., priority 1998, dated 2003).

Where a name gives a salt, the structure may show the parent alone.

Consider `CC(C)CNC(=O)c1c(CN2CCN(C(C)C)CC2)c(-c2ccccc2)nc2ccccc12` [Example 2, 3-(4-Isopropyl-piperazin-1-ylmethyl)-2-phenyl-quinoline-4-carboxylic acid isobutyl-amide], for which the melting point (in general, the temperature, or range, at which the solid turns liquid) is 215 to 217 °C.

`C[C@H](NC(=O)c1c(CN2CCOCC2)c(-c2ccccc2)nc2ccccc12)C(C)(C)C` [Example 7, 3-Morpholin-4-ylmethyl-2-phenyl-quinoline-4-carboxylic acid ((S)-1,2,2-trimethyl-propyl)-amide] gave a melting point of 207 to 209 °C.

`CC(C)N1CCN(Cc2c(-c3ccccc3)nc3ccccc3c2C(=O)NC2CCCCC2)CC1` [Example 11, 3-(4-Isopropyl-piperazin-1-ylmethyl)-2-phenyl-quinoline-4-carboxylic acid cyclohexylamide] showed a melting point of 161 to 163 °C.

`O=C(N[C@H]1CCCc2ccccc21)c1c(CN2CCC(N3CCC(O)CC3)CC2)c(-c2ccccc2)nc2ccccc12` [Example 5, 3-(4-Hydroxy-[1,4′]bipiperidinyl-1′-ylmethyl)-2-phenyl-quinoline-4-carboxylic acid ((S)-1,2,3,4-tetrahydro-naphthalen-1-yl)-amide] showed a melting point of 144 to 146 °C.

Take `O=C(NC1C2CC3CC(C2)CC1C3)c1c(CN2CCC(N3CCCCC3)CC2)c(-c2ccccc2)nc2ccccc12` (centres unmarked) [Example 10, 3-[1,4′]Bipiperidinyl-1′-ylmethyl-2-phenyl-quinoline-4-carboxylic acid adamantan-2-ylamide]: the melting point is 219 to 220 °C.

As to `CCC(CC)NC(=O)c1c(CN2CCN(C(C)C)CC2)c(-c2ccccc2)nc2ccccc12` (as salt: HCl) [Example 4, 3-(4-Isopropyl-piperazin-1-ylmethyl)-2-phenyl-quinoline-4-carboxylic acid (1-ethyl-propyl)-amide], the melting point fell in the range of 235 to 238 °C.

In turn, `CC(C)NC(=O)c1c(CN2CCN(C(C)C)CC2)c(-c2ccccc2)nc2ccccc12` (as salt: HCl) [Example 3, 3-(4-Isopropyl-piperazin-1-ylmethyl)-2-phenyl-quinoline-4-carboxylic acid isopropylamide] showed a melting point of 198 to 200 °C.

In turn, `O=C(N[C@H]1CCc2ccccc21)c1c(CN2CCC(N3CCC(O)CC3)CC2)c(-c2ccccc2)nc2ccccc12` [Example 6, 3-(4-Hydroxy-[1,4′]bipiperidinyl-1′-ylmethyl)-2-phenyl-quinoline-4-carboxylic acid (S)-indan-1-ylamide] gave a melting point of 98 to 100 °C.
